{"source": "patent US10568961B2", "about": "“Photosensitising composition and its uses” (DENTSPLY SIRONA Inc., priority 2008, dated 2020)", "format_in_all_cases": "cell-based, Enterococcus faecalis", "key": {"[1]": {"system": "E. faecalis bacteria (ATCC 29212) biofilm", "assay": "Disinfection of four-week old biofilm in root canal (CFU from dentine shavings)", "description": "The institutional review board of the National University of Singapore approved the collection and use of extracted human teeth for this experiment. Thirty single rooted teeth maintained in Phosphate Buffer Saline (PBS) with similar shape and sizes were selected for the following experiment. The crown (at the level of Cemento-Enamel Junction) and the […] of the root were removed using a microslice machine (Metal Research, England) to obtain standard sized specimens of 8 mm length. The prepared tooth specimens were selected for the experiments after inspecting for any signs of cracks or damages on the cementum. The remnants of the pulp tissue were removed from the root canal using a barbed broach and the tooth specimens were autoclaved before further experiments.\nA single colony of E. faecalis bacteria (ATCC 29212) culture was incubated in All Culture Broth (AC Broth) for 8 hours. The optical density of the culture was adjusted to 1 at 600 nm that corresponds to 10^9 cells/mL. The sterilized tooth specimens were placed in the AC broth (50 mL) with the bacterial culture and incubated in an orbital incubator (120 rpm) at 37° C. under aerobic conditions. The culture medium was replenished once in every two days to remove dead cells and to ensure proper growth of bacteria. After four weeks of incubation, the tooth specimens were subjected to the following experiment.\nThis experiment was conducted to observe the efficiency of different antimicrobial treatments on a matured root canal biofilm. After the specific incubation period, the tooth specimens were removed and washed with sterile PBS. The specimens were randomly divided into five experimental groups and treated accordingly.\nGroup 2 (conventional PDT): The tooth specimens in this group were subjected to conventional PDT. The root canals of the specimens were filled with 100 μM of MB (photosensitization) for 20 minutes and was irradiated immediately with 660 nm laser light for 20 minutes to attain a total energy level of 36 J (n=6). […]"}, "[2]": {"system": "E. faecalis biofilms grown on a glass cover slip", "assay": "Structural damage to biofilm by PDT in vitro (CLSM, live/dead stain)", "details": "seven-day biofilm, 664 nm, 31.84 J/cm^2", "protocol": "The structural damage to biofilm caused by PDT was assessed on E. faecalis biofilms grown on a glass cover slip that was fixed covering a grove (6 mm diameter) made at the bottom part of a petri dish. E. faecalis cell suspension (100 μL containing ˜10^7 cells/mL) prepared from overnight grown culture in All-Culture (AC) media was added onto the saliva-coated glass-cover slip. Six petri dishes containing the biofilm were tested in each group. After seven days of incubation with periodical replacement of growth media, the biofilm was washed and photosensitised with either 100 μM MB in water or PF4 (MB in an emulsion produced by mixing perfluorodecahydro naphthalene:H2O2:triton-X100 in the ratio 75:24.5:0.5). These biofilms were incubated in the dark for ten minutes, after which the excess of the photosensitising formulation was partially replaced with perfluorodecahydro naphthalene and exposed to irradiation using 664 nm diode laser with a total fluence of 31.84 J/cm^2.\nAfter the PDT, the washed biofilms were stained using 20 μL PBS containing 2 μL of live/dead stain (Molecular Probes, Eugene, Oreg., USA) and were observed using confocal laser scanning microscopy (CLSM). […] The optical sections of the biofilm structure were recorded and analyzed by using FluoView software (Olympus Corporation, Tokyo, Japan)."}, "[3]": {"system": "E. faecalis biofilm in root canals", "assay": "PDT of endodontic bacterial biofilm ex vivo (ten-week biofilm in tooth specimens)", "protocol": "Thirty tooth blocks were prepared by removing the crown at the level of cementoenamel junction and the apical third of the root canal (˜8 mm long). All specimens were instrumented using K-files with sizes from #20 to #40. The smear layer formed during mechanical shaping was removed by rinsing the root canal with sodium hypochlorite (1%) followed by EDTA (100 mM). The prepared single-rooted tooth specimens were incubated with 50 mL of AC media inoculated with a single colony of E. faecalis as described elsewhere (George S and Kishen A, J Biomed Opt, 2000). Incubation was carried out for ten weeks at 37° C. with periodical replacement of growth media under constant shaking (120 rpm). After the incubation period, the tooth specimens were randomly divided into five groups and were treated as follows:\nGroup 2—Root canal-treatment (RCT) group (n=5): root canals were subjected to conventional cleaning and shaping procedures performed by using a sequence of endodontic file sizes (#25 to #50 K-files; Maillefer Instruments SA, Switzerland). The root canals were repeatedly irrigated with 5 mL of 5.2% sodium hypochlorite before and after instrumentation step using a 28-G needle and a syringe. Ethylenediaminetetraacetic acid (EDTA) 17% was also used at the end of instrumentation to remove the smear layer. Group 3—Conventional PDT group (n=5): root canals were subjected to minimal instrumentation (using #25 K file). These root canals were filled with 100 μM MB in water and were irradiated with 664 nm laser light with a total energy of 31.84 J/cm^2. Group 4—PF4 group (n=5): root canals were subjected to minimal instrumentation (using #25 K file) followed by PDT using PF4. Here, the root canals were filled with PF4 and were left in the dark for 10 minutes. After the sensitization period, the excess of the photosensitizing formulation was partially replaced with perfluorodecahydro naphthalene and the root canals were irradiated with 664 nm diode laser with a total fluence of 31.84 J/cm^2. Group 5—RCT+PF4 group (n=5): root canals were subjected to the conventional root canal disinfection procedure similar to the conventional RCT group (i.e. Group 2) followed by PDT using PF4.\nAfter the specified treatment, the tooth-specimens were split open mesiodistally, and dentine shavings were collected using a round bur of 1 mm diameter held perpendicular to the root canal surface. The dentine shavings were collected at midpoint (coronoapically) from the two halves (buccal and lingual) of each root (n=12). […] Colony-forming units (CFU) were enumerated on the subsequent day, and the mean value of log10 number of bacteria and the standard error were calculated. […] The numbers of tubes positive for bacterial cells were counted against the total number of tubes."}, "[4]": {"details": "after 4 hours of enrichment, compared with the control group"}}, "data": [{"compound": "CN(C)c1ccc2nc3ccc(=[N+](C)C)cc-3sc2c1", "note": "[MB in water, Methylene blue]", "values": [{"measurement": "inactivation of bacteria", "setting": "[1]", "value": "failed to show significant bacterial reduction"}, {"measurement": "difference in bacterial count", "setting": "[1]; compared to control group", "value": 0.38, "unit": "log10"}, {"measurement": "bacterial kill", "setting": "[1]; corresponds to log10 difference vs control group", "value": 59, "unit": "%"}, {"measurement": "viability of biofilm bacteria after PDT", "setting": "[2]; live/dead stain", "value": "increased the proportion of dead cells"}, {"measurement": "biofilm thickness after PDT", "setting": "[2]; untreated biofilm 17 μm", "value": 12, "unit": "μm"}, {"measurement": "difference in the mean viable count", "setting": "[3]; [4]", "value": 1.5, "unit": "log10"}, {"measurement": "reduction in viable bacteria", "setting": "[3]; [4]", "value": 96.89, "unit": "%"}, {"measurement": "% of tooth specimens positive for bacteria after 24 hours of enrichment", "setting": "[3]; ten-week biofilm, dentine shavings", "value": 100, "unit": "%"}, {"measurement": "CFU (log10) after 4 hours of enrichments (±SD)", "setting": "[3]; ten-week biofilm, dentine shavings, control group 7.147", "value": "5.639 (±0.066) log10"}]}]}
